For nine compounds, EC50 and Emax results are on record in patent publication US20160122386A1, “V1A RECEPTOR AGONISTS” (FERRING B.V., priority 2014, published 2016).

This assay deals with T1, human V1aR (Homo sapiens, UniProt P37288).
T1 construct: expressed in transfected cells
Briefly: Agonist activity at vasopressin V1a receptors, cell-based FLIPR calcium assay. The conditions noted are these: for Emax: read-out: Efficacy Avg. (%). Summed up:
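HEK Flp-In cells stably expressing human V1aR were loaded with Calcium 4 dye plus 2.5 mM probenecid for 1 h at 37 °C, then given half-log compound concentrations (final 0.1% DMSO) on FLIPR Tetra.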

Starred links: 1 amine or outer side, 2 acyl side, 3 side chain; linkers in the order of their positions; H or OH if unused. Positions of bridges follow the written chain, without caps; N, C: chain ends. Non-standard residues stand in square brackets, D forms with d. Residues, ends and D or L forms follow the SMILES beside them. Chains are numbered I, II in the order given. *: point of attachment. isoGln = NC(=O)[C@H](CCC(=O)[*:2])N[*:1]; d(εLys) = N[C@H](CCCCN[*:1])C(=O)[*:2]; X1 = N[C@@H](CCC(=O)[*:2])C(=O)[*:1]; εLys = N[C@@H](CCCCN[*:1])C(=O)[*:2]; Cit = NC(=O)NCCC[C@H](N)C(=O)O; Heptanoyl = CCCCCCC(=O)*; Dab = NCC[C@H](N)C(=O)O; PhAc = O=C(Cc1ccccc1)*; Ava = NCCCCC(=O)O

T1 sequence (P37288 whole entry): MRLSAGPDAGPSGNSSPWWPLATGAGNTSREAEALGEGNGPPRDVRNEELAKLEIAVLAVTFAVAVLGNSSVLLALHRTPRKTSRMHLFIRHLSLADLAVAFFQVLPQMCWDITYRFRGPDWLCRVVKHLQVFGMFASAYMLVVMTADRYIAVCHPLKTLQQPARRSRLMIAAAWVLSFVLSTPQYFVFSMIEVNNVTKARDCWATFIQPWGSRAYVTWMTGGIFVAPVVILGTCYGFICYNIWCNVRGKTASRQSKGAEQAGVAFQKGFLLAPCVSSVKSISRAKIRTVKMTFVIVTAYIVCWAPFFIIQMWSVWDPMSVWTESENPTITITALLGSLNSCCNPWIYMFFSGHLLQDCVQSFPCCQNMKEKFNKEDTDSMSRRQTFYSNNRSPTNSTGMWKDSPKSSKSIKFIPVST

Regarding `CC[C@H](C)[C@@H]1NC(=O)[C@H](Cc2ccccc2)NC(=O)[C@@H](N)CSSC[C@@H](C(=O)N2CCC[C@H]2C(=O)N[C@@H](CCNC(=O)[C@@H](N)CCCCNC(=O)CC[C@H](NC(=O)[C@H](CCCNC(=N)N)NC(=O)[C@@H]2CCCN2C(=O)[C@H](CCCCN)NC(=O)[C@H](CC(N)=O)NC(=O)[C@H](CCC(N)=O)NC(=O)[C@H](Cc2ccccc2)NC(=O)[C@@H](Cc2ccc(OC)cc2)NC(=O)Cc2ccccc2)C(N)=O)C(=O)NCC(N)=O)NC(=O)[C@H](CC(N)=O)NC(=O)[C@H](CCC(N)=O)NC1=O` [Compound 35] (I: H-CFIQNCP[Dab]G-NH2 / II: PhAc-[dY](Me)FQNKPR[isoGln][εLys]; disulfide I:1-I:6; amide I:8-II:C), the EC50 was 1.2 nM and the Emax worked out at 43%.
As to `CC[C@H](C)[C@@H]1NC(=O)[C@H](Cc2ccccc2)NC(=O)[C@@H](N)CSSC[C@@H](C(=O)N2CCC[C@H]2C(=O)N[C@@H](CCNC(=O)[C@@H](N)CCCCNC(=O)CC[C@H](NC(=O)[C@H](CCCNC(=N)N)NC(=O)[C@@H]2CCCN2C(=O)[C@H](CCCNC(=N)N)NC(=O)[C@H](CC(N)=O)NC(=O)[C@H](CCC(N)=O)NC(=O)[C@@H](NC(=O)[C@@H](Cc2ccc(OC)cc2)NC(=O)Cc2ccccc2)[C@@H](C)CC)C(N)=O)C(=O)NCC(N)=O)NC(=O)[C@H](CC(N)=O)NC(=O)[C@H](CCC(N)=O)NC1=O` [Compound 36] (I: H-CFIQNCP[Dab]G-NH2 / II: PhAc-[dY](Me)IQNRPR[isoGln][εLys]; disulfide I:1-I:6; amide I:8-II:C), the EC50 is 1.2 nM and the Emax was found to be 46%.
Consider `CC[C@H](C)[C@@H]1NC(=O)[C@H](Cc2ccccc2)NC(=O)[C@@H](N)CSSC[C@@H](C(=O)N2CCC[C@H]2C(=O)N[C@@H](CCNC(=O)[C@@H](N)CCCCNC(=O)CCCCNC(=O)CC[C@H](NC(=O)[C@H](CCCNC(=N)N)NC(=O)[C@@H]2CCCN2C(=O)[C@H](C)NC(=O)[C@H](CC(N)=O)NC(=O)[C@H](CCC(N)=O)NC(=O)[C@H](Cc2ccccc2)NC(=O)[C@@H](Cc2ccc(OC)cc2)NC(=O)Cc2ccccc2)C(N)=O)C(=O)NCC(N)=O)NC(=O)[C@H](CC(N)=O)NC(=O)[C@H](CCC(N)=O)NC1=O` [Compound 37] (I: H-CFIQNCP[Dab]G-NH2 / II: PhAc-[dY](Me)FQNAPR[isoGln][Ava][εLys]; disulfide I:1-I:6; amide I:8-II:C), for which the 50% effective concentration (EC50) is 1.3 nM and the Emax was 44%.
In the case of `CC[C@H](C)[C@@H]1NC(=O)[C@H](Cc2ccccc2)NC(=O)[C@@H](N)CSSC[C@@H](C(=O)N2CCC[C@H]2C(=O)N[C@@H](CCNC(=O)[C@@H](N)CCC(=O)NCCCC[C@H](NC(=O)[C@H](CCCNC(=N)N)NC(=O)[C@@H]2CCCN2C(=O)[C@H](C)NC(=O)[C@H](CC(N)=O)NC(=O)[C@H](CCC(N)=O)NC(=O)[C@H](Cc2ccccc2)NC(=O)[C@@H](Cc2ccc(OC)cc2)NC(=O)Cc2ccccc2)C(N)=O)C(=O)NCC(N)=O)NC(=O)[C@H](CC(N)=O)NC(=O)[C@H](CCC(N)=O)NC1=O` [Compound 38] (I: H-CFIQNCP[Dab]G-NH2 / II: PhAc-[dY](Me)FQNAPRK-NH2; disulfide I:1-I:6; linker I:8-II:8 via X1), the EC50 was 1.4 nM and the Emax worked out at 46%.
For `CC[C@H](C)[C@@H]1NC(=O)[C@H](Cc2ccccc2)NC(=O)[C@@H](N)CSSC[C@@H](C(=O)N2CCC[C@H]2C(=O)N[C@@H](CCNC(=O)[C@H](N)CCCCNC(=O)CC[C@H](NC(=O)[C@H](CCCNC(=N)N)NC(=O)[C@@H]2CCCN2C(=O)[C@H](C)NC(=O)[C@H](CC(N)=O)NC(=O)[C@H](CCC(N)=O)NC(=O)[C@H](Cc2ccccc2)NC(=O)[C@@H](Cc2ccc(OC)cc2)NC(=O)Cc2ccccc2)C(N)=O)C(=O)NCC(N)=O)NC(=O)[C@H](CC(N)=O)NC(=O)[C@H](CCC(N)=O)NC1=O` [Compound 39] (I: H-CFIQNCP[Dab]G-NH2 / II: PhAc-[dY](Me)FQNAPR[isoGln][d(εLys)]; disulfide I:1-I:6; amide I:8-II:C), the EC50 is 1.8 nM and the Emax is 48%.
For the compound `CC[C@H](C)[C@@H]1NC(=O)[C@H](Cc2ccccc2)NC(=O)[C@@H](N)CSSC[C@@H](C(=O)N2CCC[C@H]2C(=O)N[C@@H](CCNC(=O)[C@@H](N)CCCCNC(=O)[C@H](CCCCN)NC(=O)CC[C@H](NC(=O)[C@H](CCCNC(=N)N)NC(=O)[C@@H]2CCCN2C(=O)[C@H](C)NC(=O)[C@H](CC(N)=O)NC(=O)[C@H](CCC(N)=O)NC(=O)[C@H](Cc2ccccc2)NC(=O)[C@@H](Cc2ccc(OC)cc2)NC(=O)Cc2ccccc2)C(N)=O)C(=O)NCC(N)=O)NC(=O)[C@H](CC(N)=O)NC(=O)[C@H](CCC(N)=O)NC1=O` [Compound 41] (I: H-CFIQNCP[Dab]G-NH2 / II: PhAc-[dY](Me)FQNAPR[isoGln]K[εLys]; disulfide I:1-I:6; amide I:8-II:C), the EC50 came to 1.2 nM and the Emax came out at 37%.
As for `CCCCCCC(=O)NCCCC[C@H](NC(=O)CC[C@H](NC(=O)[C@H](CCCNC(=N)N)NC(=O)[C@@H]1CCCN1C(=O)[C@H](C)NC(=O)[C@H](CC(N)=O)NC(=O)[C@H](CCC(N)=O)NC(=O)[C@H](Cc1ccccc1)NC(=O)[C@@H](Cc1ccc(OC)cc1)NC(=O)Cc1ccccc1)C(N)=O)C(=O)NCCCC[C@H](N)C(=O)NCC[C@H](NC(=O)[C@@H]1CCCN1C(=O)[C@@H]1CSSC[C@H](N)C(=O)N[C@@H](Cc2ccccc2)C(=O)N[C@@H]([C@@H](C)CC)C(=O)N[C@@H](CCC(N)=O)C(=O)N[C@@H](CC(N)=O)C(=O)N1)C(=O)NCC(N)=O` [Compound 43] (I: H-CFIQNCP[Dab]G-NH2 / II: PhAc-[dY](Me)FQNAPR[isoGln]K(Heptanoyl)[εLys]; disulfide I:1-I:6; amide I:8-II:C), the EC50 came out at 1.4 nM and the Emax worked out at 59%.
For the compound `CC[C@H](C)[C@@H]1NC(=O)[C@H](Cc2ccccc2)NC(=O)[C@@H](N)CSSC[C@@H](C(=O)N2CCC[C@H]2C(=O)N[C@@H](CCNC(=O)[C@@H](N)CCCCNC(=O)CC[C@H](NC(=O)[C@H](CCCNC(=N)N)NC(=O)[C@@H]2CCCN2C(=O)[C@H](CCCNC(N)=O)NC(=O)[C@H](CC(N)=O)NC(=O)[C@H](CCC(N)=O)NC(=O)[C@H](Cc2ccccc2)NC(=O)[C@@H](Cc2ccc(OC)cc2)NC(=O)Cc2ccccc2)C(N)=O)C(=O)NCC(N)=O)NC(=O)[C@H](CC(N)=O)NC(=O)[C@H](CCC(N)=O)NC1=O` [Compound 44] (I: H-CFIQNCP[Dab]G-NH2 / II: PhAc-[dY](Me)FQN[Cit]PR[isoGln][εLys]; disulfide I:1-I:6; amide I:8-II:C), the EC50 was 2 nM and the Emax amounted to 40%.
Taken in the same sequence, the figures for `CC[C@H](C)[C@@H]1NC(=O)[C@H](Cc2ccccc2)NC(=O)[C@@H](N)CSSC[C@@H](C(=O)N2CCC[C@H]2C(=O)N[C@@H](CCCNCCCCCNC(=O)CC[C@H](NC(=O)[C@H](CCCNC(=N)N)NC(=O)[C@@H]2CCCN2C(=O)[C@H](CCCNC(N)=O)NC(=O)[C@H](CC(N)=O)NC(=O)[C@H](CCC(N)=O)NC(=O)[C@H](Cc2ccc(Cl)cc2)NC(=O)[C@@H](Cc2ccc(OC)cc2)NC(=O)Cc2ccccc2)C(N)=O)C(=O)NCC(N)=O)NC(=O)[C@H](CC(N)=O)NC(=O)[C@H](CCC(N)=O)NC1=O` [Compound 45] were 0.8 nM and 72%.
